ChEMBL document CHEMBL1157996, “Guttiferone F, the first prenylated benzophenone from Allanblackia stuhlmannii” (J Nat Prod, 1999)
≈ marks a conversion by molar mass, not a printed value.

Tested on: Human immunodeficiency virus 1
Assay: Antiviral activity against HIV1 assessed as protection against virus-induced cytopathogenicity
Assay type: functional, organism-based

EC50: 23 µg/mL (≈ 38.2 µM)
Compound: C=C(C)[C@H](CC=C(C)C)C[C@@]12C[C@@H](CC=C(C)C)C(C)(C)[C@@](CC=C(C)C)(C(=O)C(C(=O)c3ccc(O)c(O)c3)=C1O)C2=O [GUTTIFERONE F]
